Columns and labels:
[1] = test system: OCC1-SEAP intraperitoneal tumors; assay: Nude mouse intraperitoneal OCC1-SEAP tumor model, plasma SEAP (Example I); assay type: in vivo, athymic nude mice; conditions: established tumors; carboplatin 60 mg/kg three times over 4 days
Experimental: Athymic nude mice (Nu/Nu; Charles River Laboratories, Wilmington, Mass.) weighing about 25 g were used for in vivo studies.
Three mice were injected intraperitoneally with 1×10^7 OCC1-SEAP-12 cells. The experimental treatments began after 1 week. […] Alternatively, four mice with well-developed tumors (2-4 weeks after injection) were treated with a high dose of carboplatin (60 mg/kg) three times over a period of 4 days. After death all visible intraperitoneal tumors were dissected out and weighed.
Blood samples were collected from saphenous vein lancings three times per week into heparinized capillary tubes. The capillary tubes were centrifuged and the plasma samples were frozen at −20° C. until the time of SEAP assay. Blood samples were taken for SEAP assay from the mice within 24 hours of death 2-3 weeks after intraperitoneal injection of OCC1-SEAP cells.
(§1) Blood plasma and cell culture medium samples were assayed for SEAP activity using the Great EscAPe SEAP fluorescence detection kit (Clontech Laboratories, Palo Alto, Calif.). SEAP is secreted at a constant rate by transfected tumor cells and distributed throughout the body or into the culture medium. SEAP is heat stable, so any endogenous alkaline phosphatase activity in blood plasma is destroyed by heat treatment of the samples (65° C. for 30 minutes) during the assay. The SEAP enzyme in each sample acts on the substrate 4-methylumbelliferyl phosphate during a 1 hour incubation at room temperature to produce a fluorescent product with excitation and emission peaks at 360 and 449 nm, respectively. A fluorimeter is then used to measure SEAP activity. The intra-assay and inter-assay coefficients of variation were 2.5% and 18.8%, respectively. Blood plasma samples were diluted 1:100 prior to the assay to bring values within the linear range of the standard curve.

[2] = test system: OCC1-SEAP cells; assay: OCC1-SEAP cell response to carboplatin in vitro (DNA per well, SEAP in medium); assay type: cell-based, human
Experimental: OCC1-SEAP-12 cells were grown in Ham's F-12 medium (Gibco) plus 10% calf serum then collected into Hank's balanced salt solution and counted for injection into nude mice. For in vitro assays OCC1-SEAP-12 cells were plated at sequential twofold dilutions and allowed to adhere to culture wells and incubated for 24 hours. Alternatively, OCC1-SEAP-12 cells were grown to 80% confluence in Ham's F-12 medium plus 10% calf serum. Cells were starved for 48 hours in DMEM plus 0.1% BSA and 0.1% calf serum. Experimental treatments were applied for 2 days in DMEM plus 0.1% BSA and 0.1% calf serum. At the end of the treatment period a sample of culture medium was taken for SEAP level determination. DNA assays were performed by discarding the remaining culture medium from over the cells, adding buffer solution, sonicating the cells in each well, and measuring the fluorescence of cell solution into which SYBR Green I fluorescent dye (Molecular Probes, Eugene, Oreg.) had been incorporated as previously described (Parrott and Skinner 1999).
as §1

[3] = test system: caspase-3; assay: Western blot for active caspase-3 (Example II); assay type: cell-based, human; conditions: carboplatin alone
[4] = test system: OCC1-SEAP-12 cells; assay: Growth assay, [3H] thymidine incorporation (Example III); assay type: cell-based, human; conditions: 18h treatment
Experimental: Cell proliferation was analyzed by determining the amount of [^3H] thymidine incorporation Into newly synthesized DNA. The OCC1-SEAP-12 cells were plated in 24 well plates in Ham's F-12 medium plus 10% BCS and allowed to reach 50 to 70% confluence. Following a 48 hr serum starvation, the culture medium was changed to Dulbecco's Modified Eagle Medium (DMEM) plus 0.1% BSA and 0.1% BCS containing either vehicle control or carboplatin (0-100 μg/ml) alone, or in combination with LY294002 (0-20 μM). Treatments were removed after 18h and cells were incubated for 4 hr in medium containing 5 μCi/ml of [^3H] thymidine. Medium was removed and cells were disrupted by sonication in phosphate buffered saline (PBS). An aliquot of the sonicated solution of PBS was loaded onto a DEAE filtration plate (Millipore, Bedford, Mass.), and individual filters with bound DNA were collected for scintillation counting. Data was normalized to total DNA per well and was determined by a SYBR green fluorescent assay (Nilsson E E, Westfall S D, McDonald C, Ligon T, Sadler-Riggleman I, Skinner M K. An in vivo mouse reporter gene (human secreted alkaline phosphatase) model to monitor ovarian tumor growth and response to therapeutics. Cancer Chemother Pharmacol 2002; 49(2):93-100).

[5] = test system: OCC1-SEAP tumor; assay: Nude mouse tumor model, intraperitoneal OCC1-SEAP cells, plasma SEAP (Example II); assay type: in vivo; conditions: carboplatin 60 mg/kg every other day for 5 days
Excerpt: Athymic nude mice (NCR Nu/Nu) were either purchased from Taconic (Germantown, N.Y.) or bred in-house at Washington State University, Pullman, Wash. The OCC1-SEAP cells were collected in Hank's balanced salt solution and counted prior to injection. Treatments were initiated 7 to 10 days following an intraperitoneal inoculation of mice with 1×10^7 OCC1-SEAP cells, as described above, in Example I.
Stock solutions of carboplatin (paraplatin; Bristol-Myers Squibb, Princeton, N.J.) and TPL (Calbiochem, CA), were prepared in sterile filtered PBS and DMSO, respectively. Animals received intraperitoneal injections of either vehicle controlled (PBS containing 4% DMSO), or carboplatin (60 mg/kg), alone, or in combination with TPL (0-1.0 mg/kg), every other day for 5 days. Alternatively, TPL (0.15 mg/kg) was injected every day for 10 days. For these experiments, carboplatin was administered under the same schedule of every other day for 5 days. Some mice were also treated with 40 mg/kg of LY294002 every other day for 5 days, with an intraperitoneal injection in the presence of TPL and carboplatin. Blood samples were collected into capillary tubes from saphenous vein lancings at regular intervals during and following treatments. The capillary tubes were centrifuged and the plasma samples were frozen at −20° C., until the time of SEAP assay. The Washington State University Animal Care and Use Committee approved all procedures.
Blood plasma and cell culture medium samples were assayed for SEAP activity using the Great EscAPe SEAP fluorescence detection kit (Clontech Laboratories, Palo Alto, Calif.), as described above in Example I. Blood plasma samples were diluted 1:100, prior to the assay to bring values within the linear range of the standard curve. The intraassay and interassay coefficients of variation were 2.5% and 18.8%, respectively. In the case of the experiments in which mice were treated with a combination of TPL, LY294002 and carboplatin, there was some variation in the extent of tumor growth in the control mice. In order to better compare response to treatment across experiments, the SEAP assay data between experiments were normalized by dividing each data point by the overall mean of all SEAP measurements from that experiment and up, through day 18. The normalized data then reflect the relative tumor burden of each mouse, compared to others in the experimental group, and can be combined across experiments.

For `N.N.O=C([O-])C1(C(=O)[O-])CCC1.[Pt+2]` [carboplatin], the “tumor burden by plasma SEAP levels” value [1] was “transiently decreased the tumor burden”, the “normalized SEAP production (SEAP per amount of DNA per well)” value ([2]; 60 micro g/ml carboplatin for 48 hours vs control) was “did not change” and the “SEAP levels in culture medium” value ([2]; 60 micro g/ml carboplatin for 48 hours, control cells 11.1) was 3.9 ng per 25 micro liter. The DNA levels ([2]; 60 micro g/ml carboplatin for 48 hours, control cells 58 micro g/ml) was 35 micro g/ml, the “time until caspase-3 is activated post-treatment” value [3] was 48 h and the “block of basal DNA synthesis” value ([4]; 20 μg/ml carboplatin) was 51%. For the same compound, the “block of basal DNA synthesis” value ([4]; 50 μg/ml carboplatin) was 59.5%, the “tumor burden vs vehicle control (FIG. 11)” value ([5]; high dose, short duration: TPL 0.5 mg/kg) was “no significant difference” and the “tumor burden as measured by SEAP levels vs vehicle control (FIG. 12)” value ([5]; low dose, long duration: TPL 0.15 mg/kg every day for 10 days) was “no significant difference”.

Reference: patent US20110045102A1, “Cancer chemotherapy compositions comprising PI3K pathway modulators and triptolide” (priority 2005, published 2011)
